In US10195285B2, “AGTR1 aptamer-anticancer drug complex for cancer cell chemotherapy” (KOREA UNIVERSITY RESEARCH AND BUSINESS FOUNDATION, priority 2016, dated 2019):
{SH} = thiol group (3'-OH replaced by SH), used for disulfide linkage to a drug

Experiments:
[1] = system: AGTR1-overexpressed SK-BR-3; experiment: Confocal imaging of Cy3-coupled aptamers binding to / internalizing in AGTR1-positive cells; format: cell-based, human; conditions: 500 nM Cy3-coupled aptamer, 10^7 cells, room temperature; compared among SEQ ID NOS:1 to 6
Protocol: 1) 100 μl (10^7 cells) of target cells, namely AGTR1-overexpressed SK-BR-3, and 100 μl of 500 nM aptamer were reacted at room temperature and imaged using a confocal microscope. The aptamers have respective base sequences of SEQ ID NOS:1 to 6, the end of each of which is coupled with a fluorescence dye Cy3.

[2] = system: AGTR1-positive breast cancer MCF7 cell line (MCF7-AGTR1); experiment: p-His3 (mitotic arrest marker) ICC/confocal in co-culture, AGTR1-positive cells; format: cell-based, human; conditions: 10 nM, 24 hr; co-culture 1:1 with BT474; HER2-not-expressed cells = MCF7-AGTR1
Protocol: (§1) (1) As produced in Example 1, the AGTR1-positive breast cancer MCF7 cell line (MCF7-AGTR1) and the AGTR1-negative breast cancer BT474 cell line (typically, MCF7 is a HER2-negative breast cancer cell line and BT474 is a HER2-positive breast cancer cell line) were co-cultured at a ratio of 1:1, and HER2 and a mitotic arrest marker, namely phospho-Histone H3 (p-[…]), were stained with ICC, the nuclei of which were stained with DAPI, and were then treated with a control (DMSO), DM1, and Aptamer-DM1 at a concentration of 10 nM for 24 hr. Thereafter, the nuclei (blue), p-[…] (green), and HER2 (red) were imaged using a confocal microscope. The number of cells in which p-[…] was detected was quantified based on whether or not AGTR1 was expressed. During the staining procedure, the MCF7-AGTR1 and BT474 cells cultured on 8-well chamber slides were fixed with 4% paraformaldehyde, washed with PBS, and cultured for 10 min with 0.2% Triton X-100. Thereafter, the cells were cultured overnight at 4° C. with primary antibodies in an antibody dilution buffer and then cultured at room temperature for 2 hr with fluorescence-conjugated secondary antibodies. Thereafter, the cells were mounted on ProLong Gold Antifade Reagent containing DAPI (4',6'-diamidine-2'-phenylindole dihydrochloride).

[3] = system: AGTR1-negative breast cancer cell line (BT474); experiment: Apoptosis rate (sub-G1%) by PI DNA content flow cytometry, AGTR1-negative cells; format: cell-based, human; conditions: 10 nM, 48 hr
Protocol: (§2) (1) The AGTR1-positive breast cancer cell line (MCF7-AGTR1) and the AGTR1-negative breast cancer cell line (BT474) were treated with a control (DMSO), DM1, Aptamer, and Aptamer-DM1 at a concentration of 10 nM for 48 hr, after which the cells were acquired and fixed with 95% ethanol containing 0.5% Tween-20 for 24 hr and cultured for 30 min with propidium iodide (PI, 50 μg/ml) and RNase (50 μg/ml). Thereafter, the apoptosis rate (sub-G1%) of cancer cells was measured through DNA content analysis using flow cytometry.
(§3) (2) Typically, the cell cycle includes, depending on the amount of DNA in cells, G1 (cell growth phase), S (cell replication phase), and G2/M (cell mitotic phase). […] The results of apoptosis are represented by the percentage of sub-G1 in the cell cycle.

[4] = system: AGTR1-negative breast cancer BT474 cell line; experiment: p-His3 (mitotic arrest marker) ICC/confocal in co-culture, AGTR1-negative cells; format: cell-based, human; conditions: 10 nM, 24 hr; co-culture 1:1 with MCF7-AGTR1; HER2-expressed cells = BT474
Protocol: as §1

[5] = system: AGTR1-positive breast cancer cell line (MCF7-AGTR1); experiment: Apoptosis rate (sub-G1%) by PI DNA content flow cytometry, AGTR1-positive cells; format: cell-based, human; conditions: 10 nM, 48 hr
Protocol: as §2, §3

MCF7-AGTR1 cancer cells = experiment: Tumor volume in breast cancer disease animal model; format: in vivo, BALB/c nude mice; conditions: 0.75 mg/kg intraperitoneally three times a week, measured for 3 weeks
Protocol: (1) Starting from the 4th day after MCF7-AGTR1 cancer cells (3×10^6 cells) were inoculated into the fourth mammary fat pads of immunodeficient 6-week-old female BALB/c nude mice, Aptamer (0.75 mg/kg) and Aptamer-DM1 (0.5 mg/kg, 0.75 mg/kg) were intraperitoneally administered three times a week. Then, the tumor volume was measured for 3 weeks. The body weights of mice were measured for 3 weeks. The tumor volume (V) was measured using a caliper and calculated according to V=(length×width^2)/2. In a Terminal deoxynucleotidyl transferase dUTP Nick End Labeling (TUNEL) assay, the tumors were removed from the mice, fixed in 10% neutral buffered formalin, and embedded in paraffin. The 4 μm thick tissue section was mounted on a positively charged glass slide, deparaffinized with xylene, and […] through a graded alcohol series. After antigen retrieval, the above tissue section was boiled in a citric acid buffer (pH 6.0) and immunofluorescence was performed. In situ TUNEL was performed on the above tissue section using a TUNEL kit (Roche Applied Sciences, Penzberg, GER), and the images thereof were obtained using a confocal scanning microscope.

“SEQ ID NO:4: ssDNA aptamer AAGTCGTCTTTGCCAAATACCGGTCTGTCGGTGGGTATTG; Cy3-coupled in the confocal test (DNA, backbone not given here; further chemistry not fully specified)” was tested. Which “internalization / fluorescence intensity (confocal, FIG. 3)” value [1] did it give?
The value was “strongest fluorescence intensity”.

With `COc1cc2cc(c1Cl)N(C)C(=O)C[C@H](OC(=O)[C@H](C)N(C)C(C)=O)[C@]1(C)O[C@H]1[C@H](C)[C@@H]1C[C@@](O)(NC(=O)O1)[C@H](OC)/C=C/C=C(\C)C2` [DM1, maytansine] as the compound, how does the “expression of p-His3 (confocal, FIG. 4)” value [2] read?
Its value is “observed regardless of whether HER2 was expressed or not”.

What about the “apoptosis rate (sub-G1%) (FIG. 6)” value [3] of the same compound?
The value was “relatively high”.

And the “expression of p-His3 (confocal, FIG. 4)” value [4]?
Its value is “observed regardless of whether HER2 was expressed or not”.

What about the “apoptosis rate (sub-G1%) (FIG. 6)” value [5] of the same compound?
Its value is “relatively high”.

Which “apoptosis rate (sub-G1%) (FIG. 6)” value [3] does the source give for “Aptamer: DNA aptamer 5'-AAGTCGTCTTTGCCAAATACCGGTCTGTCGGTGGGTATTG-3' (SEQ ID NO:4) with thiol group introduced at the 3' terminus (DNA, 3' {SH}, backbone not given here)” here?
Its value is “remarkably low”.

What about the “growth of tumors (tumor volume, FIG. 7)” value (MCF7-AGTR1 cancer cells) of the same compound?
The value was “partially inhibited”.

And the “apoptosis rate (sub-G1%) (FIG. 6)” value [5]?
Its value is “remarkably low”.
